According to patent US20070299065A1, “Tetrahydropyran Derivatives as Antidiabetics” (MERCK PATENT GMBH, priority 2004, published 2007):

`CCc1ccn(Cc2ccccc2O[C@@H]2O[C@H](CO)[C@@H](O)[C@H](O)[C@H]2O)c(=O)c1` [compound 1, 4-ethyl-1-[2-((2S,3R,4S,5S,6R)-3,4,5-trihydroxy-6-hydroxymethyltetrahydropyran-2-yloxy)benzyl]-1H-pyridin-2-one] showed a melting point of 174 °C.
